According to patent US11000506B2, “Envenomation therapies and related pharmaceutical compositions, systems and kits” (OPHIREX, INC, priority 2014, dated 2021):
“Also recorded” adds a separate entry of the source.

Columns and labels:
[1] = target: snake venom metalloproteinase; assay: IC50 for MP inhibition on various venoms (Table 8, FIG. 20); type: biochemical; conditions: general statement; values only in figures
[2] = system: E. carinatus venom MP; assay: HTS for inhibitors of E. carinatus venom MP; type: biochemical; conditions: compounds approximately 10 μM/well
Method: (§1) Background. Phospholipase A2 (PLA2) catalyzes the hydrolysis of phospholipids at the sn-2 position yielding a free fatty acid and a lysophospholipid. The release of arachidonic acid from membrane phospholipids by PLA is believed to be a key step in the control of eicosanoid production within the cell. The Bee Venom PLA2 Control was a 100 μg/ml solution of bee venom PLA2 is supplied as a positive control in the kit (Abcam kit catalog number ab133089). Substrate for MP was DQ Gelatin and assay run per EnzChek gelatinase assay manufacturers instructions. Venom MP activity was not optimized in initial experiments, but reaction rates were during experiments performed by an independently contracted laboratory. SP assay was performed using Nα-Benzoyl-L-arginine-7-amido-4-methylcoumarin hydrochloride. These kits were stored as specified if stored at −20° C. Unless otherwise specified, in the case of my experiments, only crude, unfractionated lyophilized venom purchased from Sigma or the Miami Serpentarium were used. Plate Setup: Manufacturers guidelines (paraphrased herein) were followed unless otherwise specified. Data Analysis: xcel per manufacturers recommendations. MP and SP assays were prepared and plated in the same manner as PLA2 assays except substrates and fluorophores were different. PBS was the buffer in the case of MP and SP assays and absorbance measured at 495 nm. Substrate for MP was DQ Gelatin and assay run per EnzChek gelatinase assay manufacturers instructions except that experiments were run, unconventionally at 37 C to estimate human body temperature and initial experiments for PLA2, MP activity and SP activity were not optimized for screening (e.g. extremely high doses of venom were used—10 mg/mL stock in all cases since the quality of the venom was unknown with final concentration of 0.444 mg/mL in the test wells). SP assay was performed using Na-Benzoyl-L-arginine-7-amido-4-methylcoumarin hydrochloride (Sigma). Specifics of contract laboratory technique vary from the present inventor's initial experiments in terms of venom and substrate optimization, plate size (384 instead of 96), volume and temperature and other factors including different operators such as those described immediately below, performed following the first pilot experiments and subsequently extended by a contract laboratory.
(§2) Small molecule screening and dose-response experiments took place in the Yale Center for Molecular Discovery. Instrumentation used when indicated included Tecan EVO (2), Tecan Aquarius, Matrix PlateMatePlus (2), Matrix PlateMate2×2 liquid transfer robots and Titertek and Thermo Multidrop liquid dispensers (7). PerkinElmer EnVision (3) and Tecan infinite M1000 (2) plate readers sensitively measure absorbance, fluorescence, fluorescence polarization and luminescence in 96- and 384-well plate formats. A GE InCell Analyzer 2200 imaging system acquires multicolor fluorescent and transmitted light images from plates. Piloting collections used in the first phases of screening were selected by the inventor or from libraries of known compounds and natural products available at the time of experiments on selected venoms including: NCC, GenPlus, Pharmakon, Bioactive lipids, Protease Inhibitors, Procured Drugs and FDA Approved Drugs libraries. The GenPlus (the NINDS Custom Collection) from MicroSource Discovery Systems contains 960 compounds. […]

[3] = system: C. atrox venom MP; assay: HTS for inhibitors of C. Atrox venom MP; type: biochemical
Method: as §1, §2

[4] = system: snake venom serine proteases; assay: serine protease activity with excess venom (FIG. 3); type: biochemical; conditions: 100 um; venom 0.444 mg/mL; compared to marimastat and batimastat
Method: Substrate for MP was DQ Gelatin and assay run per EnzChek gelatinase assay manufacturers instructions. Venom MP activity was not optimized in initial experiments, but reaction rates were during experiments performed by an independently contracted laboratory. SP assay was performed using Nα-Benzoyl-L-arginine-7-amido-4-methylcoumarin hydrochloride. […] Unless otherwise specified, in the case of my experiments, only crude, unfractionated lyophilized venom purchased from Sigma or the Miami Serpentarium were used. Plate Setup: Manufacturers guidelines (paraphrased herein) were followed unless otherwise specified. Data Analysis: xcel per manufacturers recommendations. MP and SP assays were prepared and plated in the same manner as PLA2 assays except substrates and fluorophores were different. PBS was the buffer in the case of MP and SP assays and absorbance measured at 495 nm. Substrate for MP was DQ Gelatin and assay run per EnzChek gelatinase assay manufacturers instructions except that experiments were run, unconventionally at 37 C to estimate human body temperature and initial experiments for PLA2, MP activity and SP activity were not optimized for screening (e.g. extremely high doses of venom were used—10 mg/mL stock in all cases since the quality of the venom was unknown with final concentration of 0.444 mg/mL in the test wells). […]

[5] = system: M. fulvius venom; assay: protection of mice from M. fulvius venom (FIG. 6A-D); type: in vivo; conditions: methylvarespladib fed ad libitum in biscuits, high-dose venom ~5 hours later; N=2
Method: Mice received SC injections of M. fulvius venom at ^˜4 times the expected LD50 (typically estimated to be 1.3 mg/kg SC) (0.1 mg M. fulvius venom/animal for approximate dose of ^˜4 mg/kg). Prior to venom injection animals received either total dose 0.1 mg varespladib exipient (sham treatment) by SC route for calculated concentration of 4 mg/kg varespladib ^˜10-15 minutes before venom administration. Surviving animals were euthanized by CO2 inhalation at the end of experiments and observations periods ranging from ^˜12 hours to as long as 30 hours (survival being designated at 24 hours). […] In mice: Varespladib 4-8 mg/kg subcutaneously or orally with methylvarespladib, taken ad libitum. In rats, varespladib or excipient was administered intravenously at 30 seconds or 5 minutes following subcutaneous administration of venom at 4 or 8 mg/kg. Blood sampling and assay for sPLA2 activity was performed with samples taken from a surgically implanted jugular venous catheter at precise intervals (baseline, 30 minutes, 1 hour and 4 hours).
6B Mice fed methylvarespladib or exipient ad libitum in biscuits had high-dose M. fulvius venom administered ^˜5 hours after introduction of the biscuits (N=2 each group). […] 6C Venom and varespladib (4 mg/kg) or venom and excipient were mixed just prior to administration and injected subcutaneously. At 5 hours (300 minutes, down-pointing arrow), surviving animals were retreated with ½ dose varespladib (2 mg/kg) or excipient. […] Mice either received venom and sham/excipient (N=7), methylvarespladib (N=3) or varespladib (N=7) ^˜30 seconds to 1.5 minute following venom administration. […] Confirmatory experiments and results of 6E-H were performed in rats by a contract laboratory to assess expand knowledge of varespladib's capacity to act in therapeutic mode and see if the effects of intravenous administration were similar to subcutaneous administration. 6E and 6F M. fulvius venom was administered subcutaneously (4 mg/kg or 8 mg/kg) and then excipient or varespladib 8 mg/kg was administered at 30 seconds or 5 minutes after envenomation.

[6] = target: bee venom PLA2 (Apis mellifera, UniProt P00630); type: biochemical
[7] = system: snake venom PLA2; type: biochemical
Method: Background. Phospholipase A2 (PLA2) catalyzes the hydrolysis of phospholipids at the sn-2 position yielding a free fatty acid and a lysophospholipid. The release of arachidonic acid from membrane phospholipids by PLA is believed to be a key step in the control of eicosanoid production within the cell. The Bee Venom PLA2 Control was a 100 μg/ml solution of bee venom PLA2 is supplied as a positive control in the kit (Abcam kit catalog number ab133089). Substrate for MP was DQ Gelatin and assay run per EnzChek gelatinase assay manufacturers instructions. Venom MP activity was not optimized in initial experiments, but reaction rates were during experiments performed by an independently contracted laboratory. SP assay was performed using Nα-Benzoyl-L-arginine-7-amido-4-methylcoumarin hydrochloride. These kits were stored as specified if stored at −20° C. Unless otherwise specified, in the case of my experiments, only crude, unfractionated lyophilized venom purchased from Sigma or the Miami Serpentarium were used. Plate Setup: Manufacturers guidelines (paraphrased herein) were followed unless otherwise specified. Data Analysis: xcel per manufacturers recommendations. MP and SP assays were prepared and plated in the same manner as PLA2 assays except substrates and fluorophores were different. PBS was the buffer in the case of MP and SP assays and absorbance measured at 495 nm. […]
Small molecule screening and dose-response experiments took place in the Yale Center for Molecular Discovery. […] PerkinElmer EnVision (3) and Tecan infinite M1000 (2) plate readers sensitively measure absorbance, fluorescence, fluorescence polarization and luminescence in 96- and 384-well plate formats. […]

[8] = system: Daboia russelli venom MP; assay: metalloproteinase activity over time, Daboia russelli venom (FIG. 2B); type: biochemical; conditions: 100 uM; venom 0.444 mg/mL
Method: Substrate for MP was DQ Gelatin and assay run per EnzChek gelatinase assay manufacturers instructions. Venom MP activity was not optimized in initial experiments, but reaction rates were during experiments performed by an independently contracted laboratory. […] These kits were stored as specified if stored at −20° C. Unless otherwise specified, in the case of my experiments, only crude, unfractionated lyophilized venom purchased from Sigma or the Miami Serpentarium were used. Plate Setup: Manufacturers guidelines (paraphrased herein) were followed unless otherwise specified. Data Analysis: xcel per manufacturers recommendations. MP and SP assays were prepared and plated in the same manner as PLA2 assays except substrates and fluorophores were different. PBS was the buffer in the case of MP and SP assays and absorbance measured at 495 nm. Substrate for MP was DQ Gelatin and assay run per EnzChek gelatinase assay manufacturers instructions except that experiments were run, unconventionally at 37 C to estimate human body temperature and initial experiments for PLA2, MP activity and SP activity were not optimized for screening (e.g. extremely high doses of venom were used—10 mg/mL stock in all cases since the quality of the venom was unknown with final concentration of 0.444 mg/mL in the test wells). […]

[9] = system: snake venom metalloproteinase; assay: time course of metalloproteinase activity with excess venom (FIG. 2A); type: biochemical; conditions: inhibitors 100 uM; venom 0.444 mg/mL
Method: Substrate for MP was DQ Gelatin and assay run per EnzChek gelatinase assay manufacturers instructions. Venom MP activity was not optimized in initial experiments, but reaction rates were during experiments performed by an independently contracted laboratory. SP assay was performed using Nα-Benzoyl-L-arginine-7-amido-4-methylcoumarin hydrochloride. […] Unless otherwise specified, in the case of my experiments, only crude, unfractionated lyophilized venom purchased from Sigma or the Miami Serpentarium were used. Plate Setup: Manufacturers guidelines (paraphrased herein) were followed unless otherwise specified. Data Analysis: xcel per manufacturers recommendations. MP and SP assays were prepared and plated in the same manner as PLA2 assays except substrates and fluorophores were different. PBS was the buffer in the case of MP and SP assays and absorbance measured at 495 nm. Substrate for MP was DQ Gelatin and assay run per EnzChek gelatinase assay manufacturers instructions except that experiments were run, unconventionally at 37 C to estimate human body temperature and initial experiments for PLA2, MP activity and SP activity were not optimized for screening (e.g. extremely high doses of venom were used—10 mg/mL stock in all cases since the quality of the venom was unknown with final concentration of 0.444 mg/mL in the test wells). SP assay was performed using Na-Benzoyl-L-arginine-7-amido-4-methylcoumarin hydrochloride (Sigma). Specifics of contract laboratory technique vary from the present inventor's initial experiments in terms of venom and substrate optimization, plate size (384 instead of 96), volume and temperature and other factors including different operators such as those described immediately below, performed following the first pilot experiments and subsequently extended by a contract laboratory.
Screening was carried out for inhibitors of venom sPLA2, MP and SPs. Stock solutions of venom at 10 mg/mL were used without typical dilution for assaying various inhibitors of sPLA2, MP and SPs. The final venom concentration in the assays was very high at 0.444 mg/mL.

[10] = system: Oxyuranus scutellatus venom serine protease; assay: inhibition of venom serine proteases in vitro (FIG. 14); type: biochemical; conditions: elapid Oxyuranus scutellatus
Method: Substrate for MP was DQ Gelatin and assay run per EnzChek gelatinase assay manufacturers instructions. Venom MP activity was not optimized in initial experiments, but reaction rates were during experiments performed by an independently contracted laboratory. SP assay was performed using Nα-Benzoyl-L-arginine-7-amido-4-methylcoumarin hydrochloride. […] Unless otherwise specified, in the case of my experiments, only crude, unfractionated lyophilized venom purchased from Sigma or the Miami Serpentarium were used. Plate Setup: Manufacturers guidelines (paraphrased herein) were followed unless otherwise specified. […] MP and SP assays were prepared and plated in the same manner as PLA2 assays except substrates and fluorophores were different. PBS was the buffer in the case of MP and SP assays and absorbance measured at 495 nm. Substrate for MP was DQ Gelatin and assay run per EnzChek gelatinase assay manufacturers instructions except that experiments were run, unconventionally at 37 C to estimate human body temperature and initial experiments for PLA2, MP activity and SP activity were not optimized for screening (e.g. extremely high doses of venom were used—10 mg/mL stock in all cases since the quality of the venom was unknown with final concentration of 0.444 mg/mL in the test wells). SP assay was performed using Na-Benzoyl-L-arginine-7-amido-4-methylcoumarin hydrochloride (Sigma). […]

[11] = system: M. fulvius venom PLA2; assay: HTS for inhibitors of M. fulvius venom PLA2; type: biochemical; conditions: compounds approximately 10 μM/well

Chain of bee venom PLA2 (P00630 34-167 limits assumed): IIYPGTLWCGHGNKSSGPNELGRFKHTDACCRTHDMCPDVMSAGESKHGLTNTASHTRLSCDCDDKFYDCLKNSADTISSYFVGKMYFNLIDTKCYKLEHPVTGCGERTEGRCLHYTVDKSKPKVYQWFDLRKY

CCOC(=O)c1ccc(OC(=O)CCCCCNC(=N)N)cc1 [gabexate, ethyl-p[6-guanidinohexanoyloxy]-benzoate methansulfonate]
IC50s on various venoms [1]: micromolar range
% Effect on E. carinatus venom MP [2]: 23%
MP inhibition (in words) [3]: MP inhibition was seen

CCc1c(C(=O)C(N)=O)c2c(OCC(=O)OC)cccc2n1Cc1ccccc1 [methylvarespladib]
inhibitory effects on snake venom serine proteases [4]: unexpected inhibitory effects
signs or symptoms of envenomation / protection from the effects of the venom [5]: complete protection; also recorded: Neither treated mouse exhibited any signs or symptoms of envenomation
inhibition of bee venom PLA2 [6]: only a modest effect
inhibition of snake venom PLA2 in vitro [7]: inhibited the measured sPLA2 activity of several medically important snake venoms

COc1ccc(S(=O)(=O)N(Cc2cccnc2)[C@@H](C(=O)NO)C(C)C)cc1 [CGS 27023]
percental (%) reduction of MP activity ([3]; compounds approximately 10 μM/well): > 95%

CCCCN1CCCCC1C(=O)Nc1c(C)cccc1C (stereo not shown) [bupvicaine]
% Effect on E. carinatus venom MP [2]: > 10%

NC[C@H](O)c1ccc(O)c(O)c1 [Norepinephrine]
% Effect on E. carinatus venom MP [2]: 28%

CNC(=O)[C@@H](NC(=O)[C@H](CC(C)C)[C@H](O)C(=O)NO)C(C)(C)C [marimastat]
inhibition of Daboia russelli venom MP over time [8]: comparable inhibition
inhibition of metalloproteinase activity (time course) [9]: most consistently showing significant inhibition

N=C(N)c1ccc2cc(OC(=O)c3ccc(N=C(N)N)cc3)ccc2c1 [Nafamostat]
IC50s on various venoms [1]: micromolar range
% Effect on E. carinatus venom MP [2]: 28%
activity against venom serine protease in vitro [10]: surprising activity

Ceramide
% effect (% inhibition) on M. fulvius venom PLA2 [11]: 43%
